Data on two compounds can be found in article PMC9519446, “Discovery of an Orally Active Benzoxaborole Prodrug Effective in the Treatment of Chagas Disease in Non-human Primates” (Nature microbiology, 2022).

“And” between values parts separate entries of the source, which are not always exact repeats. Identical values can stand only once.

Data set [1] has as its system Luciferase-expressing T. cruzi (Brazil strain). Put plainly: In vivo killing time assay (footpad bioluminescence). Also on record: species or system C57BL/6 mice. Conditions: for Bioluminiscence signal of the feet of mice infected with Luciferase expresssing T. cruzi: individual feet. The method, then:
C57BL/6 mice were infected with 2.5x10^5 Luciferase-expressing T. cruzi (Brazil strain) in the foot pads, and two days later one oral dose of AN14353 (25 mg/kg) was administered. The bioluminescent signal in the feet after i.p. injection of D-luciferin (PerkinElmer; 250mg/kg) was measured in a Lumina II IVIS imager (PerkinElmer).

In data set [2] the test system is T. cruzi (naturally acquired infection). Put plainly: NHP treatment study: blood qPCR for T. cruzi DNA. The format is in vivo, rhesus macaques (Macaca mulatta). An excerpt:
A total of 22 rhesus macaques that had been confirmed to be serologically- and PCR-positive for T. cruzi were utilized in these studies. Using 19 animals in the treatment group provided 85% power of detecting 100% efficacy. […] The remaining three animals on the study were maintained as untreated control animals and received food treats but were not dosed with AN15368.
Blood samples from each macaque were collected at various time points and processed for quantification of T. cruzi DNA by real-time qPCR. Between 8-10ml of whole blood collected in EDTA anticoagulant tubes was subjected to DNA extraction using the Omega E.Z.N.A. Blood DNA Maxi Kit (Omega Bio-Tek), following the manufacturer’s instructions for up to 10 ml whole blood and using a total of 650 μl of elution buffer. Each round of extractions included a negative (no-template) control comprised of 10 ml PBS. The concentration of DNA in the eluted solution was quantified after each extraction using an Epoch microplate spectrophotometer (BioTek).
DNA from each sample was then subjected to a series of two qPCR assays for detection of T. cruzi satellite DNA. The first qPCR used the cruzi 1, 2 primer set and cruzi 3 TaqMan probe as previously described, [54], using BioRad iTaq Universal Probes Supermix (Bio-Rad). […] We selected FAM and VIC channels for each read.
Background: Real-time PCR tracks product formation cycle by cycle.

Data set [3] deals with Luciferase expressing T. cruzi (Colombiana strain). The data set can be described thus: Low dose short treatment (whole body bioluminescence). The format is in vivo, Hairless mice (SKH-1). The text has this:
Bioluminiscence signal of the whole body was measure after D-luciferin injection in a Lumina II IVIS in vivo imager equipped with the Living Imaging 4.0 software (PerkinElmer).

The nature of another data set: NHP bodyweights. Conditions: individual treated macaques. Format: in vivo, rhesus macaques (Macaca mulatta).

Experimental for NHP bodyweights: Under light-anesthesia/sedation, peripheral blood samples were collected from each animal prior to treatment and at 7 time points following. Blood analysis (CBC and serum chemistry assays) and physical exams to evaluate the health of the study animals were performed on each animal prior to the beginning of the study and also at three time points during the treatment protocol (see Supplementary data).

As for `Cc1c(C(=O)NC(C(=O)OCc2ccc(F)c(F)c2)C(C)C)ccc2c1B(O)OC2` (stereo not drawn) [AN14353], the “Bioluminiscence signal of the feet of mice infected with Luciferase expresssing T. cruzi” value was 38900 and 50000 and 58900 and 53200 and 27400 and 49600 in data set [1] (dpi 0); 16800 and 26800 and 41700 and 19800 and 27400 and 55100 in data set [1] (dpi 6); 53200 and 26000 and 25400 and 27200 and 20400 and 32200 in data set [1] (dpi 12); 28700 and 38600 and 17100 and 17600 and 12200 and 16200 in data set [1] (dpi 24); 38600 and 26900 and 29300 and 28500 and 15800 and 33500 in data set [1] (dpi 30); 13500 and 15700 and 12600 and 12800 and 9070 and 11900 in data set [1] (dpi 48). In addition, in data set [1] (dpi 72), the “Bioluminiscence signal of the feet of mice infected with Luciferase expresssing T. cruzi” value was 90400 and 76200 and 47100 and 14600 and 38700 and 41000. For the same compound, the “in vivo trypanocidal activity (killing time)” value in data set [1] (single oral dose 25 mg/kg) is recorded as “rapid in vivo trypanocidal activity”.
Take `Cc1c(C(=O)N[C@H](C(=O)OCC2CCOCC2)C(C)C)ccc2c1B(O)OC2` [AN15368]: in data set [2] (30 mg/kg/day oral 60 days, all time points after end of treatment), the “parasite DNA in blood (in words)” value is recorded as “negative”. For the same compound, the efficacy / cure in data set [2] (naturally infected NHPs, 30 mg/kg/day 60 days) was 100%. For the same compound, the “Bioluminiscence signals of mice” value in data set [3] (AN15368_2.5mg, 19 dpi) was 29400000 and 22400000 and 35610000 and 24370000; in data set [3] (AN15368_5mg, 15 dpi) it was 8923000 and 11990000; in data set [3] (AN15368_5mg, 19 dpi), 2040000. Moreover, the “bodyweight at end of study (remark)” value in “NHP bodyweights” is “Weighed less at end of study”. Also, the “Bodyweights” value in the data set “NHP bodyweights” (weighing 2017-09-11/12) is 6.37 kg and 8.90 kg and 7.40 kg and 5.20 kg and 6.40 kg and 6.70 kg and 7.70 kg and 7.60 kg and 7.10 kg and 6.30 kg and 7.20 kg and 7.30 kg; in “NHP bodyweights” (weighing 2017-10-18/19), 7.00 kg and 9.40 kg and 7.50 kg and 5.30 kg and 6.60 kg and 7.10 kg and 8.00 kg and 7.70 kg and 7.20 kg and 6.40 kg; in the data set “NHP bodyweights” (weighing 2017-11-16), 7.30 kg and 9.70 kg and 7.70 kg and 5.50 kg and 6.90 kg and 8.30 kg and 7.00 kg and 6.70 kg and 7.90 kg; in the data set “NHP bodyweights” (weighing 2017-12-05/06) it was 7.50 kg and 9.70 kg and 7.80 kg and 5.80 kg and 6.90 kg and 7.10 kg and 8.10 kg and 7.00 kg and 8.40 kg; in “NHP bodyweights” (weighing 2017-12-19/20) it was 7.50 kg and 9.70 kg and 7.60 kg and 5.50 kg and 6.50 kg and 6.70 kg and 8.10 kg and 7.40 kg and 6.60 kg and 7.90 kg and 7.70 kg; in “NHP bodyweights” (weighing 2018-01-08/09), 7.60 kg and 9.80 kg and 7.80 kg and 5.40 kg and 6.60 kg and 6.80 kg and 8.20 kg and 6.90 kg and 7.00 kg. Moreover, the “Bodyweights” value in the data set “NHP bodyweights” (weighing 2018-01-22/23) is 7.60 kg and 9.95 kg and 7.90 kg and 5.60 kg and 6.80 kg and 7.15 kg and 8.25 kg and 7.65 kg and 6.85 kg and 8.10 kg and 8.20 kg; in the data set “NHP bodyweights” (weighing 2018-02-26/27), 8.05 kg and 10.20 kg and 7.90 kg and 5.70 kg and 6.95 kg and 7.25 kg and 8.45 kg and 7.80 kg and 7.30 kg and 8.35 kg and 8.25 kg; in “NHP bodyweights” (weighing 2018-03-26/27), 8.00 kg and 10.15 kg and 5.75 kg and 7.00 kg and 7.55 kg and 8.65 kg and 7.85 kg and 6.95 kg and 7.50 kg and 8.20 kg and 8.75 kg; in the data set “NHP bodyweights” (weighing 2018-04-09/10/11) it was 7.95 kg and 10.20 kg and 8.10 kg and 5.90 kg and 6.85 kg and 7.15 kg and 8.70 kg.
